Tested on: influenza A/Wyoming/03/2003 (H3N2)
Assay: Plaque reduction assay in MDCK cell monolayers
Format: cell-based, influenza virus
Settings: 5 μg/mL drug control, 72 h

**Q.** With `NC(=O)c1ncn([C@@H]2O[C@H](CO)[C@@H](O)[C@H]2O)n1` [Ribavirin, ribavirin] as the compound, how does the plaque formation read?
**A.** completely inhibits the formation of plaques

— patent US20140274883A1, “NOVEL ANTIVIRAL COMPOUNDS FROM MARINE EXTRACTS” (priority 2008, published 2014)
